Assay results published in PubChem BioAssay AID248 (DTP/NCI, 2004).
Values joined by “and” are separate entries in the source; they are usually repeats but may differ in a detail not shown here. Equal values may be shown once. Inconclusive results and toxic doses are left out. No stated cut-off is given here; in the data, active means T/C of 150% or more; inactive means T/C below 125%.

System: L1210 leukemia ip in BDF1 mice, survival T/C
Assay: NCI In Vivo Anticancer Drug Screen. Data for tumor model L1210 Leukemia (intraperitoneal) in B6D2F1 (BDF1) mice
Details: higher = longer survival
Method in brief: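 Survival endpoint. Drug-treated group vs vehicle group, expressed as T divided by C. Tumor passaged by transplantation.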

[1] = endpoint: mean survival time, dose: 100.0 mg/kg/injection, schedule: Q01DX009 (ip), vehicle: saline with Tween-80
[2] = endpoint: mean survival time, dose: 100.0 mg/kg/injection, schedule: Q04DX003 (ip), vehicle: Klucel (hydroxypropylcellulose) (HPC)
[3] = endpoint: mean survival time, dose: 200.0 mg/kg/injection, schedule: Q01DX009 (ip), vehicle: saline with Tween-80
[4] = endpoint: mean survival time, dose: 200.0 mg/kg/injection, schedule: Q04DX003 (ip), vehicle: Klucel (hydroxypropylcellulose) (HPC)
[5] = endpoint: mean survival time, dose: 400.0 mg/kg/injection, schedule: Q01DX009 (ip), vehicle: saline with Tween-80
[6] = endpoint: mean survival time, dose: 400.0 mg/kg/injection, schedule: Q04DX003 (ip), vehicle: Klucel (hydroxypropylcellulose) (HPC)
[7] = endpoint: mean survival time, dose: 100.0 mg/kg/injection, schedule: Q01DX009 (ip), vehicle: Klucel (hydroxypropylcellulose) (HPC)
[8] = endpoint: mean survival time, dose: 200.0 mg/kg/injection, schedule: Q01DX009 (ip), vehicle: Klucel (hydroxypropylcellulose) (HPC)

Measured: T/C

CCCCCCCCCCCCCCCCCCNC(=O)N1CC1
inactive: [1] 93 % of control | [2] 88 % of control | [3] 94 % of control | [4] 100 % of control | [5] 93 % of control | [6] 93 % of control

CCOC(=O)c1c(-c2ccc([N+](=O)[O-])cc2)cn(-c2ccccc2)c1C
inactive: endpoint: mean survival time, dose: 100.0 mg/kg/injection, schedule: Q04DX002 (ip), vehicle: Klucel (hydroxypropylcellulose) (HPC) 91 % of control | endpoint: mean survival time, dose: 200.0 mg/kg/injection, schedule: Q04DX002 (ip), vehicle: Klucel (hydroxypropylcellulose) (HPC) 97 % of control | endpoint: mean survival time, dose: 400.0 mg/kg/injection, schedule: Q04DX002 (ip), vehicle: Klucel (hydroxypropylcellulose) (HPC) 87 % of control

CC(=O)OC1CCC2(C)C(CCC3C2CCC2(C)C3CCC2C(C)(C)O)C1 (configuration not stated)
inactive: endpoint: mean survival time, dose: 100.0 mg/kg/injection, schedule: Q04DX002 (ip), vehicle: DMSO 99 % of control | endpoint: mean survival time, dose: 200.0 mg/kg/injection, schedule: Q04DX002 (ip), vehicle: DMSO 92 % of control | endpoint: mean survival time, dose: 400.0 mg/kg/injection, schedule: Q04DX002 (ip), vehicle: DMSO 92 % of control

Nc1ccc2cc(S(=O)(=O)O)cc(S(=O)(=O)O)c2c1
inactive: endpoint: mean survival time, dose: 100.0 mg/kg/injection, schedule: Q04DX002 (ip), vehicle: saline 95 % of control | endpoint: mean survival time, dose: 200.0 mg/kg/injection, schedule: Q04DX002 (ip), vehicle: saline 102 % of control

CC(=O)Nc1ccc(NCc2cnc3nc(N)nc(N)c3n2)cc1
inactive: endpoint: mean survival time, dose: 20.0 mg/kg/injection, schedule: Q01DX009 (ip), vehicle: Klucel (hydroxypropylcellulose) (HPC) 96 % of control | endpoint: mean survival time, dose: 40.0 mg/kg/injection, schedule: Q01DX009 (ip), vehicle: Klucel (hydroxypropylcellulose) (HPC) 104 % of control | endpoint: mean survival time, dose: 80.0 mg/kg/injection, schedule: Q01DX009 (ip), vehicle: Klucel (hydroxypropylcellulose) (HPC) 96 % of control

Oc1ccc2ccccc2c1N=Nc1nccs1
inactive: endpoint: mean survival time, dose: 12.5 mg/kg/injection, schedule: Q01DX009 (ip), vehicle: Klucel (hydroxypropylcellulose) (HPC) 96 % of control | endpoint: mean survival time, dose: 25.0 mg/kg/injection, schedule: Q01DX009 (ip), vehicle: Klucel (hydroxypropylcellulose) (HPC) 95 % of control | endpoint: mean survival time, dose: 50.0 mg/kg/injection, schedule: Q01DX009 (ip), vehicle: Klucel (hydroxypropylcellulose) (HPC) 101 % of control | endpoint: mean survival time, dose: 100.0 mg/kg/injection, schedule: Q01DX001 (ip), vehicle: Klucel (hydroxypropylcellulose) (HPC) 94 % of control | [2] 100 % of control | endpoint: mean survival time, dose: 200.0 mg/kg/injection, schedule: Q01DX001 (ip), vehicle: Klucel (hydroxypropylcellulose) (HPC) 101 % of control | [4] 96 % of control | endpoint: mean survival time, dose: 400.0 mg/kg/injection, schedule: Q01DX001 (ip), vehicle: Klucel (hydroxypropylcellulose) (HPC) 98 % of control | [6] 94 % of control

O=CN/N=C/c1ccc2c(c1)CCC2
inactive: [1] 97 % of control | [3] 102 % of control | [5] 98 % of control

CCC(C(=O)Cl)c1ccc(-c2ccccc2)cc1 (configuration not stated)
inactive: endpoint: mean survival time, dose: 50.0 mg/kg/injection, schedule: Q01DX001 (ip), vehicle: saline with Tween-80 96 % of control | endpoint: mean survival time, dose: 100.0 mg/kg/injection, schedule: Q01DX001 (ip), vehicle: saline with Tween-80 96 % of control | endpoint: mean survival time, dose: 200.0 mg/kg/injection, schedule: Q01DX001 (ip), vehicle: saline with Tween-80 96 % of control

Cc1n(CC(C)C)c2c([n+]1C)C(=O)c1ccccc1C2=O
inactive: endpoint: mean survival time, dose: 0.03 mg/kg/injection, schedule: Q01DX001 (ip), vehicle: saline 98 % of control | endpoint: mean survival time, dose: 0.06 mg/kg/injection, schedule: Q01DX001 (ip), vehicle: saline 109 % of control | endpoint: mean survival time, dose: 0.12 mg/kg/injection, schedule: Q01DX001 (ip), vehicle: saline 106 % of control | endpoint: mean survival time, dose: 0.24 mg/kg/injection, schedule: Q01DX001 (ip), vehicle: saline 101 % of control | endpoint: mean survival time, dose: 0.25 mg/kg/injection, schedule: Q01DX015 (ip), vehicle: saline 97 % of control | endpoint: mean survival time, dose: 0.5 mg/kg/injection, schedule: Q01DX015 (ip), vehicle: saline 95 % of control | endpoint: mean survival time, dose: 1.0 mg/kg/injection, schedule: Q01DX015 (ip), vehicle: saline 106 % of control and 108 % of control | endpoint: mean survival time, dose: 2.0 mg/kg/injection, schedule: Q01DX015 (ip), vehicle: saline 108 % of control | endpoint: mean survival time, dose: 2.0 mg/kg/injection, schedule: Q04DX003 (ip), vehicle: saline 91 % of control

CSc1nc(N)cc(Nc2ccc(Cl)[nH]c2=S)n1
inactive: endpoint: mean survival time, dose: 75.0 mg/kg/injection, schedule: Q01DX001 (ip), vehicle: Klucel (hydroxypropylcellulose) (HPC) 92 % of control | endpoint: mean survival time, dose: 150.0 mg/kg/injection, schedule: Q01DX001 (ip), vehicle: Klucel (hydroxypropylcellulose) (HPC) 95 % of control | endpoint: mean survival time, dose: 300.0 mg/kg/injection, schedule: Q01DX001 (ip), vehicle: Klucel (hydroxypropylcellulose) (HPC) 93 % of control

Cc1ccc(S(=O)(=O)OCC2Oc3ccccc3O2)cc1
inactive: endpoint: mean survival time, dose: 75.0 mg/kg/injection, schedule: Q04DX003 (ip), vehicle: Klucel (hydroxypropylcellulose) (HPC) 93 % of control | endpoint: mean survival time, dose: 150.0 mg/kg/injection, schedule: Q04DX003 (ip), vehicle: Klucel (hydroxypropylcellulose) (HPC) 107 % of control | endpoint: mean survival time, dose: 300.0 mg/kg/injection, schedule: Q04DX003 (ip), vehicle: Klucel (hydroxypropylcellulose) (HPC) 100 % of control

Cc1cc(-c2ccc(NC(=O)N(C)CCC#N)c(C)c2)ccc1NC(=O)N(C)CCC#N
inactive: endpoint: mean survival time, dose: 100.0 mg/kg/injection, schedule: Q01DX009 (ip), vehicle: other 88 % of control | endpoint: mean survival time, dose: 200.0 mg/kg/injection, schedule: Q01DX009 (ip), vehicle: other 97 % of control | endpoint: mean survival time, dose: 400.0 mg/kg/injection, schedule: Q01DX009 (ip), vehicle: other 100 % of control

COc1ccc(C[C@H](N)C(=O)NC2C(CO)OC(n3cnc4c(N(C)C)ncnc43)C2O)cc1 (some centres not stated)
inactive: endpoint: mean survival time, dose: 5.0 mg/kg/injection, schedule: Q01DX001 (ip), vehicle: saline 103 % of control | endpoint: mean survival time, dose: 9.94 mg/kg/injection, schedule: Q01DX Z (ip), vehicle: carboxymethylcellulose (CMC) 108 % of control | endpoint: mean survival time, dose: 10.0 mg/kg/injection, schedule: Q01DX001 (ip), vehicle: saline 97 % of control | endpoint: mean survival time, dose: 19.88 mg/kg/injection, schedule: Q01DX Z (ip), vehicle: carboxymethylcellulose (CMC) 117 % of control | endpoint: mean survival time, dose: 20.0 mg/kg/injection, schedule: Q01DX001 (ip), vehicle: saline 95 % of control | endpoint: mean survival time, dose: 39.75 mg/kg/injection, schedule: Q01DX Z (ip), vehicle: carboxymethylcellulose (CMC) 112 % of control | endpoint: mean survival time, dose: 40.0 mg/kg/injection, schedule: Q01DX001 (ip), vehicle: saline 110 % of control | endpoint: mean survival time, dose: 79.5 mg/kg/injection, schedule: Q01DX Z (ip), vehicle: carboxymethylcellulose (CMC) 113 % of control | endpoint: mean survival time, dose: 80.0 mg/kg/injection, schedule: Q01DX001 (ip), vehicle: saline 100 % of control | endpoint: median survival time, dose: 25.0 mg/kg/injection, schedule: Q04DX003 (ip), vehicle: saline 95 % of control | endpoint: median survival time, dose: 50.0 mg/kg/injection, schedule: Q04DX003 (ip), vehicle: saline 107 % of control | endpoint: median survival time, dose: 100.0 mg/kg/injection, schedule: Q04DX003 (ip), vehicle: saline 108 % of control | endpoint: median survival time, dose: 200.0 mg/kg/injection, schedule: Q04DX003 (ip), vehicle: saline 106 % of control

c1ccc(P(CCP(CCP(c2ccccc2)c2ccccc2)CCP(c2ccccc2)c2ccccc2)c2ccccc2)cc1
inactive: [7] 89 % of control | [8] 89 % of control | endpoint: mean survival time, dose: 400.0 mg/kg/injection, schedule: Q01DX009 (ip), vehicle: Klucel (hydroxypropylcellulose) (HPC) 88 % of control

O=C(CS)OCCOC(=O)CS
inactive: endpoint: mean survival time, dose: 50.0 mg/kg/injection, schedule: Q04DX003 (ip), vehicle: Klucel (hydroxypropylcellulose) (HPC) 105 % of control | [7] 92 % of control | [2] 101 % of control | [8] 87 % of control | [4] 106 % of control | [6] 86 % of control
